Results: ChEMBL document CHEMBL1949614, “Advent of Imidazo[1,2-a]pyridine-3-carboxamides with Potent Multi- and Extended Drug Resistant Antituberculosis Activity” (ACS Med Chem Lett, 2011)
≈ marks a conversion by molar mass, not a printed value. Calls of active or inactive are those of the source. The calls are words filed in the database; no cut-off is given here.

Tests used:
[1] = test system: Mycobacterium tuberculosis; assay: Antitubercular activity against non-replicating Mycobacterium tuberculosis H37Rv expressing vibrio harveyii luciferase gene incubated 10 days under anaerobic condition measured after 28 hrs of recovery in aerobic condition by luciferase based low oxygen recovery assay
[2] = test system: Mycobacterium tuberculosis; assay: microbe, parasite or virus in culture; conditions: H37Rv ATCC 27294, 168 h
Description: Antituberculosis activity against Mycobacterium tuberculosis H37Rv ATCC 27294 in GAST medium after 1 week by microplate alamar blue assay

[3] = test system: Mycobacterium tuberculosis; assay: microbe, parasite or virus in culture; conditions: H37Rv ATCC 27294, 168 h; remark: listed apart in the source
Description: Antituberculosis activity against Mycobacterium tuberculosis H37Rv ATCC 27294 in 7H12 medium after 1 week by microplate alamar blue assay

[4] = test system: Vero; assay: Cytotoxicity against african green monkey Vero cells after 72 hrs; assay type: cell-based; conditions: Chlorocebus sabaeus
[5] = test system: Mycobacterium tuberculosis; assay: microbe, parasite or virus in culture; conditions: H37Rv ATCC 27294, 168 h; remark: listed apart in the source
Description: Antituberculosis activity against Mycobacterium tuberculosis H37Rv ATCC 27294 in GAS medium after 1 week by microplate alamar blue assay

[6] = Clearance in Sprague-Dawley rat at 1 mg/kg, iv; assay type: ADME, organism-based; design: dose 1 mg/kg, route intravenous; conditions: in vivo
[7] = test system: Rattus norvegicus; assay: Oral bioavailability in Sprague-Dawley rat at 10 mg/kg; assay type: ADME, organism-based; conditions: in vivo
[8] = test system: Escherichia coli; assay: Antimicrobial activity against Escherichia coli; assay type: functional
[9] = Cmax in Sprague-Dawley rat at 10 mg/kg, po; assay type: ADME, organism-based; design: dose 10 mg/kg, route oral; conditions: in vivo
[10] = test system: Candida albicans; assay: Antifungal activity against Candida albicans; assay type: functional
[11] = Aqueous solubility of the compound in PBS buffer at pH 7.4; assay type: physicochemical
[12] = in vivo; conditions: Sprague-Dawley, rat, po, 10 mg/kg
[13] = Half life in Sprague-Dawley rat at 1 mg/kg, iv; assay type: ADME, organism-based; design: dose 1 mg/kg, route intravenous; conditions: in vivo
[14] = Drug metabolism in rat liver microsomes at 1 mM after 30 mins by LC/MS analysis; assay type: ADME, Microsome; conditions: read-out: Drug metabolism
[15] = Drug metabolism in human liver microsomes at 1 mM after 30 mins by LC/MS analysis; assay type: ADME, Microsome; conditions: read-out: Drug metabolism
[16] = test system: Staphylococcus aureus; assay: Antibacterial activity against Staphylococcus aureus; assay type: functional
[17] = test system: Mycobacterium tuberculosis; assay: microbe, parasite or virus in culture; conditions: H37Rv
Description: Antimicrobial activity against Mycobacterium tuberculosis H37Rv by microbroth dilution assay

[18] = test system: Mycobacteroides chelonae; assay: Antimicrobial activity against Mycobacterium chelonae by microbroth dilution assay; assay type: functional
[19] = test system: Mycobacteroides abscessus; assay: Antimicrobial activity against Mycobacterium abscessus by microbroth dilution assay; assay type: functional
[20] = test system: Mycobacterium kansasii; assay: Antimicrobial activity against Mycobacterium kansasii by microbroth dilution assay; assay type: functional
[21] = test system: Mycobacterium avium; assay: Antimicrobial activity against Mycobacterium avium by microbroth dilution assay; assay type: functional
[22] = test system: Mycobacterium marinum; assay: Antimicrobial activity against Mycobacterium marinum by microbroth dilution assay; assay type: functional
[23] = test system: Mycolicibacterium smegmatis; assay: Antimicrobial activity against Mycobacterium smegmatis by microbroth dilution assay; assay type: functional
[24] = Half life in rat liver microsomes at 1 mM by LC/MS analysis; assay type: ADME, Microsome
[25] = test system: Mycobacterium tuberculosis; assay: Antitubercular activity against Mycobacterium tuberculosis assessed as up-regulation of cytochrome bd oxidase at 0.1 to 10 ug/mL after 6 hrs; assay type: functional, organism-based
[26] = test system: Mycobacterium tuberculosis; assay: Antitubercular activity against Mycobacterium tuberculosis assessed as up-regulation of phosphoenolpyruvate carboxykinase at 0.1 to 10 ug/mL after 6 hrs; assay type: functional, organism-based

Row | Structure (SMILES) | MIC90 [1] [µM] | MIC90 [2] [µM] | MIC90 [3] [µM] | IC50 [4] [µM] | MIC90 [5] [µM] | clearance [6] [L/h/kg] | MIC [8] [µM] | Cmax [9] [µg/mL] | MIC [10] [µM] | solubility [11] [µM] | Tmax [12] [min] | half-life [13] [min] | metabolised at 0.5 h [14] [%] | metabolised at 0.5 h [15] [%] | MIC [16] [µM] | further results
1 | O=[N+]([O-])c1cn2c(n1)OC[C@@H](OCc1ccc(OC(F)(F)F)cc1)C2 [PRETOMANID] | 4.9 (≈ 1.76 µg/mL) | 0.21 (≈ 0.0754 µg/mL) | 0.47 (≈ 0.169 µg/mL) | > 128 | 0.31 (≈ 0.111 µg/mL) | – | – | – | – | – | – | – | – | – | – | –
2 | Cc1ccc(CNC(=O)c2c(C)nc3cc(C)ccn23)cc1 | – | 0.8 (≈ 0.235 µg/mL) | – | 54.7 | 0.51 (≈ 0.15 µg/mL) | – | – | – | – | – | – | – | – | – | – | –
3 | Cc1ccn2c(C(=O)NCc3ccc(Cl)cc3)c(C)nc2c1 | 28 (≈ 8.79 µg/mL) | 0.51 (≈ 0.16 µg/mL) | 1.94 (≈ 0.609 µg/mL) | > 128 | 0.5 (≈ 0.157 µg/mL) | 3.06 | > 128 | 2 | > 128 | 25 (≈ 7.84 µg/mL) | 18.6 | 24 | 79 | 82 | > 128 | F [7]: 49%
4 | Cc1ccn2c(C(=O)Nc3ccccc3)c(C)nc2c1 | – | > 128 | – | – | – | – | – | – | – | – | – | – | – | – | – | –
5 | COc1cccc(CNC(=O)c2c(C)nc3cc(C)ccn23)c1 | 31.4 (≈ 9.71 µg/mL) | 1 (≈ 0.309 µg/mL) | 5.9 (≈ 1.83 µg/mL) | > 128 | 1.2 (≈ 0.371 µg/mL) | 2.58 | > 128 | 3.14 | > 128 | 149 (≈ 46.1 µg/mL) | 15 | 19.8 | 80 | 47 | > 128 | –
6 | CO[C@H]1/C=C/O[C@@]2(C)Oc3c(C)c(O)c4c(O)c(c(/C=N/N5CCN(C)CC5)c(O)c4c3C2=O)NC(=O)/C(C)=C\C=C\[C@H](C)[C@H](O)[C@@H](C)[C@@H](O)[C@@H](C)[C@H](OC(C)=O)[C@@H]1C [RIFAMPIN] | – | 0.2 (≈ 0.165 µg/mL) | 0.07 (≈ 0.0576 µg/mL) | 113 | 0.8 (≈ 0.658 µg/mL) | – | – | – | – | – | – | – | – | – | – | MIC90 [17]: 0.05 µM (≈ 0.0411 µg/mL); MIC90 [18]: 150 µM (≈ 123 µg/mL); MIC90 [19]: 162 µM (≈ 134 µg/mL); MIC90 [20]: < 0.78 µM; MIC90 [21]: < 0.78 µM; MIC90 [22]: < 0.78 µM; MIC90 [23]: 162 µM (≈ 134 µg/mL)
7 | Cc1ccn2c(C(=O)NCc3ccc(Cl)c(Cl)c3)c(C)nc2c1 | – | 14.4 (≈ 5.01 µg/mL) | – | – | 9.3 (≈ 3.24 µg/mL) | – | – | – | – | – | – | – | – | – | – | –
8 | COc1ccc(CNC(=O)c2c(C)nc3cc(C)ccn23)cc1 | 10.5 (≈ 3.25 µg/mL) | 0.5 (≈ 0.155 µg/mL) | 1.35 (≈ 0.418 µg/mL) | > 128 | 0.51 (≈ 0.158 µg/mL) | 1.68 | > 128 | 5.74 | > 128 | 148 (≈ 45.8 µg/mL) | 15 | 16.8 | 69 | 30 | > 128 | F [7]: 50%
9 | COc1ccccc1CNC(=O)c1c(C)nc2cc(C)ccn12 | – | 1.9 (≈ 0.588 µg/mL) | – | > 128 | 2.8 (≈ 0.866 µg/mL) | – | – | – | – | – | – | – | – | – | – | –
10 | Cc1ccn2c(C(=O)NCc3cccc(F)c3)c(C)nc2c1 | 40.1 (≈ 11.9 µg/mL) | 0.38 (≈ 0.113 µg/mL) | 1.98 (≈ 0.589 µg/mL) | > 128 | 0.29 (≈ 0.0862 µg/mL) | – | > 128 | – | > 128 | – | – | – | – | – | > 128 | –
11 | COc1cccc(CNC(=O)c2c(C)nc3ncc(C)cn23)c1 | > 10 | 0.1 (≈ 0.031 µg/mL) | 0.48 (≈ 0.149 µg/mL) | 88.7 | – | – | > 128 | – | > 128 | – | – | – | – | – | > 128 | MIC90 [17]: 5.94 µM (≈ 1.84 µg/mL); MIC90 [18]: > 50 µM; MIC90 [19]: > 50 µM; MIC90 [20]: 12 µM (≈ 3.72 µg/mL); MIC90 [21]: 12 µM (≈ 3.72 µg/mL); MIC90 [22]: > 50 µM; MIC90 [23]: > 50 µM
12 | Cc1ccn2c(C(=O)NCc3ccccc3)c(C)nc2c1 | 53.6 (≈ 15 µg/mL) | 0.69 (≈ 0.193 µg/mL) | 1.9 (≈ 0.531 µg/mL) | > 128 | 0.37 (≈ 0.103 µg/mL) | 5.46 | > 128 | 3.01 | > 128 | 181 (≈ 50.6 µg/mL) | 15 | 21 | 71 | 59 | > 128 | F [7]: 76%; MIC90 [17]: 1.07 µM (≈ 0.299 µg/mL); half-life [24]: 19 min; Activity [25]: Active; Activity [26]: Active; MIC90 [18]: > 50 µM; MIC90 [19]: > 50 µM; MIC90 [20]: 1.32 µM (≈ 0.369 µg/mL); MIC90 [21]: 1.32 µM (≈ 0.369 µg/mL); MIC90 [22]: > 50 µM; MIC90 [23]: > 50 µM
